Assay results published in patent US11053251B2, “GPR35 modulators” (Prometheus Biosciences, Inc., priority 2019, dated 2021).

Target: Human GPR35 (Homo sapiens, UniProt Q9HC97, S294R)
Experiment: Alternative Beta-Arrestin Assay (JumpIn 294R Tango U2OS cells, LiveBLAzer-FRET B/G)
Format: cell-based
Conditions: Human GPR35 expressing JumpIn 294R Tango U2OS cells, 5 hours treatment
Method: Human GPR35 expressing JumpIn (Thermo Fisher) 294R Tango U2OS cells were plated in 384-well format in clear bottom plates at a cell density of 10,000 cells/well and allowed to grow overnight. The next day, cells were treated with serially diluted test compounds for 5 hours. LiveBLAzer-FRET B/G (CCF4-AM) detection reagents were then added and cells were allowed to incubate for 2 hours before reading plates on a BioTek Cytation 5 plate reader. Zaprinast was used as a positive control for dose-response curves. In order to determine EC50 values, data w ere fit to a four-parameter dose-response curves.

Chain of Human GPR35 (Q9HC97 whole entry S294R): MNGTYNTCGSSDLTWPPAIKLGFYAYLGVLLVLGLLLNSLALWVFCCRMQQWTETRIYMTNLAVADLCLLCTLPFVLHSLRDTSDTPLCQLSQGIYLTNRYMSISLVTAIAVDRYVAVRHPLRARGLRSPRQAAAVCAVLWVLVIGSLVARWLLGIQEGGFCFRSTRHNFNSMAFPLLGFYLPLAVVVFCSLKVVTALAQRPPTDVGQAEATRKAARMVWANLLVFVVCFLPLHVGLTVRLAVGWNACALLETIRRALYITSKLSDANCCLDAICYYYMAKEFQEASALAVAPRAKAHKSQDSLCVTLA

Compound	EC50
CCOc1cc(-c2cccc([C@@H]3C[C@H]3C(=O)O)c2)ccc1-c1nc2[nH]nnc2c(=O)[nH]1 (single isomer, unassigned) [Compound 279, trans-2-(3′-ethoxy-4′-(7-oxo-6,7-dihydro-3H-[1,2,3]triazolo[4,5-d]pyrimidin-5-yl)-[1,1′-biphenyl]-3-yl)cyclopropane-1-carboxylic acid]	≤ 10 µM
CCOc1cc(-c2cccc(O[C@H](CC)C(=O)O)c2)ccc1-c1nc2[nH]nnc2c(=O)[nH]1 (single isomer, unassigned) [Compound 253]	≤ 10 µM
CN(C)CCCOc1cc(-c2ccc(C(=O)O)cc2)ccc1-c1nc2[nH]nnc2c(=O)[nH]1 [Compound 229, 3′-(3-(Dimethylamino)propoxy)-4′-(7-oxo-6,7-dihydro-3H-[1,2,3]triazolo[4,5-d]pyrimidin-5-yl)-[1,1′-biphenyl]-4-carboxylic acid]	10 to 50 µM
CCOc1cc(-c2ccc(F)c(O[C@H](C)C(=O)O)c2)ccc1-c1nc2[nH]nnc2c(=O)[nH]1 [Compound 264, (R)-2-((3′-ethoxy-4-fluoro-4′-(7-oxo-6,7-dihydro-3H-[1,2,3]triazolo[4,5-d]pyrimidin-5-yl)-[1,1′-biphenyl]-3-yl)oxy)propanoic acid]	≤ 10 µM
CCOc1cc(-c2cccc([C@H]3C[C@H]3C(=O)O)c2)ccc1-c1nc2[nH]nnc2c(=O)[nH]1 (single isomer, unassigned) [Compound 307, Cis-2-(3′-ethoxy-4′-(7-oxo-6,7-dihydro-3H-[1,2,3]triazolo[4,5-d]pyrimidin-5-yl)-[1,1′-biphenyl]-3-yl)cyclopropane-1-carboxylic acid]	≤ 10 µM
CC(C)OC(=O)COc1cccc(-c2ccc(-c3nc4[nH]nnc4c(=O)[nH]3)c(OC3CCCC3)c2)c1 [Compound 271, isopropyl 2-((3′-(cyclopentyloxy)-4′-(7-oxo-6,7-dihydro-3H-[1,2,3]triazolo[4,5-d]pyrimidin-5-yl)-[1,1′-biphenyl]-3-yl)oxy)acetate]	≤ 10 µM
O=c1[nH]c(-c2ccc(-c3nnn[nH]3)cc2O)nc2[nH]nnc12 [Compound 147, 5-(2-hydroxy-4-(1H-tetrazol-5-yl)phenyl)-3,6-dihydro-7H-[1,2,3]triazolo[4,5-d]pyrimidin-7-one]	≤ 10 µM
CCOc1cc(-c2ccc(OCCN(C)C)c(CCC(=O)O)c2)ccc1-c1nc2[nH]nnc2c(=O)[nH]1 [Compound 320, 3-(4-(2-(dimethylamino)ethoxy)-3′-ethoxy-4′-(7-oxo-6,7-dihydro-3H-[1,2,3]triazolo[4,5-d]pyrimidin-5-yl)-[1,1′-biphenyl]-3-yl)propanoic acid]	≤ 10 µM
CCOC(=O)Cc1cccc(-c2ccc(-c3nc4[nH]nnc4c(=O)[nH]3)c(OCC)c2)c1 [Compound 294, ethyl 2-(3′-ethoxy-4′-(7-oxo-6,7-dihydro-3H-[1,2,3]triazolo[4,5-d]pyrimidin-5-yl)-[1,1′-biphenyl]-3-yl)acetate]	≤ 10 µM
CCOc1cc(-c2cccc(NC(C)(C)C(=O)O)c2)ccc1-c1nc2[nH]nnc2c(=O)[nH]1 [Compound 224, 2-((3′-Ethoxy-4′-(7-oxo-6,7-dihydro-3H-[1,2,3]triazolo[4,5-d]pyrimidin-5-yl)-[1,1′-biphenyl]-3-yl)amino)-2-methylpropanoic acid]	≤ 10 µM
CCOc1cc(-c2ccc(C(=O)O)o2)ccc1-c1nc2[nH]nnc2c(=O)[nH]1 [Compound 189, 5-(3-ethoxy-4-(7-oxo-6,7-dihydro-3H-[1,2,3]triazolo[4,5-d]pyrimidin-5-yl)phenyl)furan-2-carboxylic acid]	≤ 10 µM
CCOc1cc(-c2ccc(C(=O)O)c(N)c2)ccc1-c1nc2[nH]nnc2c(=O)[nH]1 [Compound 204, 3-Amino-3′-ethoxy-4′-(7-oxo-6,7-dihydro-3H-[1,2,3]triazolo[4,5-d]pyrimidin-5-yl)-[1,1′-biphenyl]-4-carboxylic acid]	≤ 10 µM
CCOc1cc(-c2cccc([C@H]3C[C@H]3C(=O)O)c2)ccc1-c1nc2[nH]nnc2c(=O)[nH]1 (single isomer, unassigned) [Compound 308, cis-2-(3′-ethoxy-4′-(7-oxo-6,7-dihydro-3H-[1,2,3]triazolo[4,5-d]pyrimidin-5-yl)-[1,1′-biphenyl]-3-yl)cyclopropane-1-carboxylic acid]	≤ 10 µM
CCOc1cc(-c2ccc(C(=O)OCc3oc(=O)oc3C)cc2)ccc1-c1nc2nn[nH]c2c(=O)[nH]1 [Compound 193, (5-Methyl-2-oxo-1,3-dioxol-4-yl)methyl 3′-ethoxy-4′-(7-oxo-6,7-dihydro-3H-[1,2,3]triazolo[4,5-d]pyrimidin-5-yl)-[1,1′-biphenyl]-4-carboxylate]	≤ 10 µM
CCOc1cc(-c2cc(F)cc(O[C@@H](C)C(=O)O)c2)ccc1-c1nc2[nH]nnc2c(=O)[nH]1 (single isomer, unassigned) [Compound 263]	≤ 10 µM
CCOc1cc(-c2cccc(CC3(C(=O)O)CCC3)c2)ccc1-c1nc2[nH]nnc2c(=O)[nH]1 [Compound 246, 1-((3′-ethoxy-4′-(7-oxo-6,7-dihydro-3H-[1,2,3]triazolo[4,5-d]pyrimidin-5-yl)-[1,1′-biphenyl]-3-yl)methyl)cyclobutane-1-carboxylic acid]	≤ 10 µM
CCOc1cc(-c2cccc(CC(C)C(=O)O)c2)ccc1-c1nc2[nH]nnc2c(=O)[nH]1 (single isomer, unassigned) [Compound 311, 3-(3′-ethoxy-4′-(7-oxo-6,7-dihydro-3H-[1,2,3]triazolo[4,5-d]pyrimidin-5-yl)-[1,1′-biphenyl]-3-yl)-2-methylpropanoic acid]	≤ 10 µM
Nc1cc(-c2nc3[nH]nnc3c(=O)[nH]2)ccc1-c1ccc(C(=O)O)cc1 [Compound 287, 2′-amino-4′-(7-oxo-6,7-dihydro-3H-[1,2,3]triazolo[4,5-d]pyrimidin-5-yl)-[1,1′-biphenyl]-4-carboxylic acid]	≤ 10 µM
CCOc1cc(-c2cc(O)cc(C(=O)O)c2)ccc1-c1nc2[nH]nnc2c(=O)[nH]1 [Compound 198, 3′-Ethoxy-5-hydroxy-4′-(7-oxo-6,7-dihydro-3H-[1,2,3]triazolo[4,5-d]pyrimidin-5-yl)-[1,1′-biphenyl]-3-carboxylic acid]	≤ 10 µM
O=C(O)CNc1cccc(-c2ccc(-c3nc4[nH]nnc4c(=O)[nH]3)c(OC3CCCC3)c2)c1 [Compound 225, (3′-(Cyclopentyloxy)-4′-(7-oxo-6,7-dihydro-3H-[1,2,3]triazolo[4,5-d]pyrimidin-5-yl)-[1,1′-biphenyl]-3-yl)glycine]	≤ 10 µM
O=C(O)c1ccc(-c2ccc(-c3nc4[nH]nnc4c(=O)[nH]3)cc2[N+](=O)[O-])cc1 [Compound 286, 2′-nitro-4′-(7-oxo-6,7-dihydro-3H-[1,2,3]triazolo[4,5-d]pyrimidin-5-yl)-[1,1′-biphenyl]-4-carboxylic acid]	≤ 10 µM
CCOc1cc(-c2cccc(CC(C)C(=O)OC)c2)ccc1-c1nc2[nH]nnc2c(=O)[nH]1 (centres unmarked) [Compound 310, methyl 3-(3′-ethoxy-4′-(7-oxo-6,7-dihydro-3H-[1,2,3]triazolo[4,5-d]pyrimidin-5-yl)-[1,1′-biphenyl]-3-yl)-2-methylpropanoate]	≤ 10 µM
O=C(O)c1ccc(-c2ccc(-c3nc4[nH]nnc4c(=O)[nH]3)cc2NC2CCCCC2)cc1 [Compound 289, 2′-(cyclohexylamino)-4′-(7-oxo-6,7-dihydro-3H-[1,2,3]triazolo[4,5-d]pyrimidin-5-yl)-[1,1′-biphenyl]-4-carboxylic acid]	≤ 10 µM
